{"source": "patent US20200017495A1", "about": "“NOVEL HETEROCYCLIC COMPOUNDS AND THEIR USE IN PREVENTING OR TREATING BACTERIAL INFECTIONS” (priority 2017, published 2020)", "key": {"[1]": {"tested_on": "Enterobacter cloacae (ECL) isolates", "experiment": "MIC of compounds alone and combined with antibacterials, broth microdilution (CLSI)", "assay_type": "cell-based", "summary_of_the_method": "(§1)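 First, log-phase suspensions are brought to 5.10^5 CFU/mL final in ca-MHB; plates then incubate 16-20 h at 35° C in air. Growth is judged visually, giving the compound MIC alone and the antibacterial MIC at each compound concentration.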"}, "[2]": {"tested_on": "Serratia marcescens (SMA) isolates", "experiment": "MIC of compounds alone and combined with antibacterials, broth microdilution (CLSI)", "assay_type": "cell-based", "summary_of_the_method": "as §1"}}}
{"compound": "C=CC1=C(C(=O)O)N2C(=O)[C@@H](NC(=O)/C(=N\\OCC(=O)O)c3csc(N)n3)[C@H]2SC1", "note": "[FIX, Cefixime]", "values": [{"measurement": "MIC", "setting": "[1]; strain ECL UFR196, genotype TEM-1, CTX-M-15, OXA-1, OXA-48", "result": ">128", "unit": "µg/mL"}, {"measurement": "MIC ATB in combination", "setting": "[1]; strain ECL UFR196, with AF2 @ 8 μg/mL", "result": 8, "unit": "µg/mL"}, {"measurement": "MIC ATB in combination", "setting": "[1]; strain ECL UFR196, with AF3 @ 8 μg/mL", "result": 2, "unit": "µg/mL"}, {"measurement": "MIC ATB in combination", "setting": "[1]; strain ECL UFR196, with CLA @ 4 μg/mL", "result": ">128", "unit": "µg/mL"}, {"measurement": "MIC", "setting": "[1]; strain ECL UFR197, genotype TEM-1, CTX-M-15, OXA-1, OXA-48", "result": ">128", "unit": "µg/mL"}, {"measurement": "MIC ATB in combination", "setting": "[1]; strain ECL UFR197, with AF2 @ 8 μg/mL", "result": 32, "unit": "µg/mL"}, {"measurement": "MIC ATB in combination", "setting": "[1]; strain ECL UFR197, with AF3 @ 8 μg/mL", "result": 4, "unit": "µg/mL"}, {"measurement": "MIC ATB in combination", "setting": "[1]; strain ECL UFR197, with CLA @ 4 μg/mL", "result": 128, "unit": "µg/mL"}, {"measurement": "MIC", "setting": "[1]; strain ECL UFR198, genotype TEM-1, SHV-12, CTX-M-15, DHA-1, OXA-1, OXA-48", "result": ">128", "unit": "µg/mL"}, {"measurement": "MIC ATB in combination", "setting": "[1]; strain ECL UFR198, with AF2 @ 8 μg/mL", "result": 128, "unit": "µg/mL"}, {"measurement": "MIC ATB in combination", "setting": "[1]; strain ECL UFR198, with AF3 @ 8 μg/mL", "result": 32, "unit": "µg/mL"}, {"measurement": "MIC ATB in combination", "setting": "[1]; strain ECL UFR198, with CLA @ 4 μg/mL", "result": ">128", "unit": "µg/mL"}, {"measurement": "MIC", "setting": "[1]; strain ECL UFR200, genotype TEM-1, SHV-12, KPC-2", "result": ">128", "unit": "µg/mL"}, {"measurement": "MIC", "setting": "[1]; strain ECL UFR203, genotype TEM-1, SHV-12, VIM-1, antibiotic alone", "result": ">128", "unit": "µg/mL"}, {"measurement": "MIC ATB in combination", "setting": "[1]; strain ECL UFR203, with AF2 @ 8 μg/mL", "result": ">128", "unit": "µg/mL"}, {"measurement": "MIC ATB in combination", "setting": "[1]; strain ECL UFR203, with AF3 @ 8 μg/mL", "result": ">128", "unit": "µg/mL"}, {"measurement": "MIC ATB in combination", "setting": "[1]; strain ECL UFR203, with CLA @ 4 μg/mL", "result": ">128", "unit": "µg/mL"}, {"measurement": "MIC", "setting": "[1]; strain ECL UFR214, genotype TEM-1, SHV-31, CTX-M-15, VIM-4, antibiotic alone", "result": ">128", "unit": "µg/mL"}, {"measurement": "MIC ATB in combination", "setting": "[1]; strain ECL UFR214, with AF2 @ 8 μg/mL", "result": ">128", "unit": "µg/mL"}, {"measurement": "MIC ATB in combination", "setting": "[1]; strain ECL UFR214, with AF3 @ 8 μg/mL", "result": ">128", "unit": "µg/mL"}, {"measurement": "MIC ATB in combination", "setting": "[1]; strain ECL UFR214, with CLA @ 4 μg/mL", "result": ">128", "unit": "µg/mL"}, {"measurement": "MIC", "setting": "[1]; strain ECL UFR252PT, genotype VIM-2, antibiotic alone", "result": ">128", "unit": "µg/mL"}, {"measurement": "MIC ATB in combination", "setting": "[1]; strain ECL UFR252PT, with AF2 @ 8 μg/mL", "result": ">128", "unit": "µg/mL"}, {"measurement": "MIC ATB in combination", "setting": "[1]; strain ECL UFR252PT, with AF3 @ 8 μg/mL", "result": ">128", "unit": "µg/mL"}, {"measurement": "MIC ATB in combination", "setting": "[1]; strain ECL UFR252PT, with CLA @ 4 μg/mL", "result": ">128", "unit": "µg/mL"}, {"measurement": "MIC ATB in combination", "setting": "[2]; SMA UFR30, AF2 @ 8 μg/mL", "result": 0.5, "unit": "µg/mL"}, {"measurement": "MIC ATB in combination", "setting": "[2]; SMA UFR30, AF3 @ 8 μg/mL", "result": "<=0.25 μg/mL"}, {"measurement": "MIC ATB in combination", "setting": "[2]; SMA UFR30, CLA @ 4 μg/mL", "result": 1, "unit": "µg/mL"}, {"measurement": "MIC ATB in combination", "setting": "[2]; SMA UFR134, AF2 @ 8 μg/mL", "result": 0.5, "unit": "µg/mL"}, {"measurement": "MIC ATB in combination", "setting": "[2]; SMA UFR134, AF3 @ 8 μg/mL", "result": "<=0.25 μg/mL"}, {"measurement": "MIC ATB in combination", "setting": "[2]; SMA UFR134, CLA @ 4 μg/mL", "result": 32, "unit": "µg/mL"}, {"measurement": "MIC ATB in combination", "setting": "[2]; SMA UFR135, AF2 @ 8 μg/mL", "result": 2, "unit": "µg/mL"}, {"measurement": "MIC ATB in combination", "setting": "[2]; SMA UFR135, AF3 @ 8 μg/mL", "result": 2, "unit": "µg/mL"}, {"measurement": "MIC ATB in combination", "setting": "[2]; SMA UFR135, CLA @ 4 μg/mL", "result": 32, "unit": "µg/mL"}, {"measurement": "MIC ATB in combination", "setting": "[2]; SMA UFR136, AF2 @ 8 μg/mL", "result": 4, "unit": "µg/mL"}, {"measurement": "MIC ATB in combination", "setting": "[2]; SMA UFR136, AF3 @ 8 μg/mL", "result": 4, "unit": "µg/mL"}, {"measurement": "MIC ATB in combination", "setting": "[2]; SMA UFR136, CLA @ 4 μg/mL", "result": ">128", "unit": "µg/mL"}, {"measurement": "MIC ATB in combination", "setting": "[2]; SMA UFR137, AF2 @ 8 μg/mL", "result": "<=0.25 μg/mL"}, {"measurement": "MIC ATB in combination", "setting": "[2]; SMA UFR137, AF3 @ 8 μg/mL", "result": "<=0.25 μg/mL"}, {"measurement": "MIC ATB in combination", "setting": "[2]; SMA UFR137, CLA @ 4 μg/mL", "result": 1, "unit": "µg/mL"}, {"measurement": "MIC ATB in combination", "setting": "[2]; SMA UFR138, AF2 @ 8 μg/mL", "result": "<=0.25 μg/mL"}, {"measurement": "MIC ATB in combination", "setting": "[2]; SMA UFR138, AF3 @ 8 μg/mL", "result": "<=0.25 μg/mL"}, {"measurement": "MIC ATB in combination", "setting": "[2]; SMA UFR138, CLA @ 4 μg/mL", "result": 0.5, "unit": "µg/mL"}, {"measurement": "MIC ATB in combination", "setting": "[2]; SMA UFR139, AF2 @ 8 μg/mL", "result": 1, "unit": "µg/mL"}, {"measurement": "MIC ATB in combination", "setting": "[2]; SMA UFR139, AF3 @ 8 μg/mL", "result": "<=0.25 μg/mL"}, {"measurement": "MIC ATB in combination", "setting": "[2]; SMA UFR139, CLA @ 4 μg/mL", "result": 2, "unit": "µg/mL"}, {"measurement": "MIC ATB in combination", "setting": "[2]; SMA UFR141, AF2 @ 8 μg/mL", "result": "<=0.25 μg/mL"}, {"measurement": "MIC ATB in combination", "setting": "[2]; SMA UFR141, AF3 @ 8 μg/mL", "result": 0.5, "unit": "µg/mL"}, {"measurement": "MIC ATB in combination", "setting": "[2]; SMA UFR141, CLA @ 4 μg/mL", "result": 0.5, "unit": "µg/mL"}, {"measurement": "MIC ATB in combination", "setting": "[2]; SMA UFR142, AF2 @ 8 μg/mL", "result": 0.5, "unit": "µg/mL"}, {"measurement": "MIC ATB in combination", "setting": "[2]; SMA UFR142, AF3 @ 8 μg/mL", "result": 1, "unit": "µg/mL"}, {"measurement": "MIC ATB in combination", "setting": "[2]; SMA UFR142, CLA @ 4 μg/mL", "result": 2, "unit": "µg/mL"}, {"measurement": "MIC ATB in combination", "setting": "[2]; SMA UFR143, AF2 @ 8 μg/mL", "result": "<=0.25 μg/mL"}, {"measurement": "MIC ATB in combination", "setting": "[2]; SMA UFR143, AF3 @ 8 μg/mL", "result": "<=0.25 μg/mL"}, {"measurement": "MIC ATB in combination", "setting": "[2]; SMA UFR143, CLA @ 4 μg/mL", "result": 64, "unit": "µg/mL"}, {"measurement": "MIC ATB in combination", "setting": "[2]; SMA UFR239, AF2 @ 8 μg/mL", "result": 0.25, "unit": "µg/mL"}, {"measurement": "MIC ATB in combination", "setting": "[2]; SMA UFR239, AF3 @ 8 μg/mL", "result": "<=0.25 μg/mL"}, {"measurement": "MIC ATB in combination", "setting": "[2]; SMA UFR239, CLA @ 4 μg/mL", "result": 2, "unit": "µg/mL"}, {"measurement": "MIC", "setting": "[2]; strain SMA UFR30, genotype OXA-405", "result": 1, "unit": "µg/mL"}, {"measurement": "MIC", "setting": "[2]; strain SMA UFR134, genotype TEM-1, BES-1", "result": ">128", "unit": "µg/mL"}, {"measurement": "MIC", "setting": "[2]; strain SMA UFR135, genotype TEM-1, KPC-2", "result": 64, "unit": "µg/mL"}, {"measurement": "MIC", "setting": "[2]; strain SMA UFR136, genotype TEM-1, SHV-12, KPC-2", "result": ">128", "unit": "µg/mL"}, {"measurement": "MIC", "setting": "[2]; strain SMA UFR137, genotype SME-1", "result": 0.5, "unit": "µg/mL"}, {"measurement": "MIC", "setting": "[2]; strain SMA UFR138, genotype SME-1", "result": 0.5, "unit": "µg/mL"}, {"measurement": "MIC", "setting": "[2]; strain SMA UFR139, genotype SME-2", "result": 1, "unit": "µg/mL"}]}
